Assay results: patent publication US20220104493A1, “HERBICIDAL COMPOUNDS” (SYNGENTA CROP PROTECTION AG, priority 2019, published 2022)

How the values were obtained:
Type in all cases: in vivo
[1] = system: Ipomoea hederacea (IPOHE); experiment: Post-emergence efficacy, Method A; conditions: 500 g/Ha, 100=total damage to plant, 0=no damage, evaluated after 7 and 14 days, read-out: Control of weed species after post-emergence application, IPOHE
[2] = system: Euphorbia heterophylla (EPHHL); experiment: Post-emergence efficacy, Method A; conditions: 500 g/Ha, 100=total damage to plant, 0=no damage, evaluated after 7 and 14 days, read-out: Control of weed species after post-emergence application, EPHHL
[3] = system: Chenopodium album (CHEAL); experiment: Post-emergence efficacy, Method A; conditions: 500 g/Ha, 100=total damage to plant, 0=no damage, evaluated after 7 and 14 days, read-out: Control of weed species after post-emergence application, CHEAL
[4] = system: Amaranthus palmeri (AMAPA); experiment: Post-emergence efficacy, Method A; conditions: 500 g/Ha, 100=total damage to plant, 0=no damage, evaluated after 7 and 14 days, read-out: Control of weed species after post-emergence application, AMAPA
Lolium perenne (LOLPE) = experiment: Post-emergence efficacy, Method A; conditions: 500 g/Ha, 100=total damage to plant, 0=no damage, evaluated after 7 and 14 days, read-out: Control of weed species after post-emergence application, LOLPE
[5] = system: Digitaria sanguinalis (DIGSA); experiment: Post-emergence efficacy, Method A; conditions: 500 g/Ha, 100=total damage to plant, 0=no damage, evaluated after 7 and 14 days, read-out: Control of weed species after post-emergence application, DIGSA
Eleusine indica (ELEIN) = experiment: Post-emergence efficacy, Method A; conditions: 500 g/Ha, 100=total damage to plant, 0=no damage, evaluated after 7 and 14 days, read-out: Control of weed species after post-emergence application, ELEIN
[6] = system: Echinochloa crus-galli (ECHCG); experiment: Post-emergence efficacy, Method A; conditions: 500 g/Ha, 100=total damage to plant, 0=no damage, evaluated after 7 and 14 days, read-out: Control of weed species after post-emergence application, ECHCG
Setaria faberi (SETFA) = experiment: Post-emergence efficacy, Method A; conditions: 500 g/Ha, 100=total damage to plant, 0=no damage, evaluated after 7 and 14 days, read-out: Control of weed species after post-emergence application, SETFA
Brassica napus (BRSNN) = experiment: Post-emergence efficacy, Method B
Experimental: (§1) Seeds of a variety of test species were sown in standard loam based soil in pots. Plants were cultivated from between 21 and 28 days (post-emergence) under controlled conditions in a glasshouse (at 24/16° C., day/night; 14 hours light; 65% humidity) for warm climate species and (at 20/16° C. day/night; 15 hours light; 65% humidity) for cool climate species.
(§2) The plants were sprayed with an aqueous spray solution derived from dissolving the technical active ingredient formula in a small amount of acetone and a special solvent and emulsifier mixture referred to as IF50 (11.12% Emulsogen EL360 TM+44.44% N-methylpyrrolidone+44.44% Dowanol DPM glycol ether), to create a 50 g/l solution which was then diluted to required concentration using 0.5% or 1% Empicol ESC70 (Sodium lauryl ether sulphate)+1% ammonium sulphate as diluent.
(§3) The delivery of the aqueous spray solution was via a laboratory track sprayer which delivered the aqueous spray composition at a rate of 200 litres per hectare, using a flat fan nozzle (Teejet 11002VS) and an application volume of 200 litre/ha (at 2 bar).
(§4) The test plants were then grown in a glasshouse under controlled conditions (at 24/16° C., day/night; 14 hours light; 65% humidity) for warm climate species and (at 20/16° C. day/night; 15 hours light; 65% humidity) for cool climate species and watered twice daily. After 7 and 14 days the test was evaluated (100=total damage to plant; 0=no damage to plant).
(§5) Brassica napus (BRSNN), Solanum turberosum (SOLTU), Glycine Max (GLXMA), and Helianthus annus (HELAN)

Glycine Max (GLXMA) = experiment: Post-emergence efficacy, Method B
Experimental: as §1, §2, §3, §4, §5

Helianthus annus (HELAN) = experiment: Post-emergence efficacy, Method B; conditions: second set of rows of Table C (evaluated after 7 and 14 days, day not printed)
Experimental: as §1, §2, §3, §4, §5

[7] = system: Solanum turberosum (SOLTU); experiment: Post-emergence efficacy, Method B
Experimental: as §1, §2, §3, §4, §5

[8] = 50 g/Ha, first set of rows of Table C (evaluated after 7 and 14 days, day not printed)
[9] = 50 g/Ha, second set of rows of Table C (evaluated after 7 and 14 days, day not printed)
[10] = 150 g/Ha, first set of rows of Table C (evaluated after 7 and 14 days, day not printed)
[11] = 150 g/Ha, second set of rows of Table C (evaluated after 7 and 14 days, day not printed)
[12] = 600 g/Ha, first set of rows of Table C (evaluated after 7 and 14 days, day not printed)
[13] = 600 g/Ha, second set of rows of Table C (evaluated after 7 and 14 days, day not printed)

O=S(=O)([O-])C[n+]1ccc(-c2ncns2)cc1 [Compound A4, [4-(1,2,4-thiadiazol-5-yl)pyridin-1-ium-1-yl]methanesulfonate]
pest or weed control at 500 g/ha [1]: 100%
pest or weed control at 500 g/ha [2]: 100%
pest or weed control at 500 g/ha [3]: 100%
pest or weed control at 500 g/ha [4]: 100%
pest or weed control at 500 g/ha (Lolium perenne (LOLPE)): 80%
pest or weed control at 500 g/ha [5]: 70%
pest or weed control at 500 g/ha (Eleusine indica (ELEIN)): 80%
pest or weed control at 500 g/ha [6]: 70%
pest or weed control at 500 g/ha (Setaria faberi (SETFA)): 80%
Control after post-emergence application, BRSNN (100=total damage to plant; 0=no damage to plant) (Brassica napus (BRSNN); [8]): 23
Control after post-emergence application, BRSNN (100=total damage to plant; 0=no damage to plant) (Brassica napus (BRSNN); [9]): 43
Control after post-emergence application, BRSNN (100=total damage to plant; 0=no damage to plant) (Brassica napus (BRSNN); [10]): 32
Control after post-emergence application, BRSNN (100=total damage to plant; 0=no damage to plant) (Brassica napus (BRSNN); [11]): 57
Control after post-emergence application, BRSNN (100=total damage to plant; 0=no damage to plant) (Brassica napus (BRSNN); [12]): 43
Control after post-emergence application, BRSNN (100=total damage to plant; 0=no damage to plant) (Brassica napus (BRSNN); [13]): 80
Control after post-emergence application, GLXMA (100=total damage to plant; 0=no damage to plant) (Glycine Max (GLXMA); [8]): 45
Control after post-emergence application, GLXMA (100=total damage to plant; 0=no damage to plant) (Glycine Max (GLXMA); [9]): 52
Control after post-emergence application, GLXMA (100=total damage to plant; 0=no damage to plant) (Glycine Max (GLXMA); [10]): 83
Control after post-emergence application, GLXMA (100=total damage to plant; 0=no damage to plant) (Glycine Max (GLXMA); [11]): 62
Control after post-emergence application, GLXMA (100=total damage to plant; 0=no damage to plant) (Glycine Max (GLXMA); [12]): 93
Control after post-emergence application, GLXMA (100=total damage to plant; 0=no damage to plant) (Glycine Max (GLXMA); [13]): 85
Control after post-emergence application, HELAN (100=total damage to plant; 0=no damage to plant) (Helianthus annus (HELAN); 50 g/Ha): 97
Control after post-emergence application, HELAN (100=total damage to plant; 0=no damage to plant) (Helianthus annus (HELAN); 150 g/Ha): 100
Control after post-emergence application, HELAN (100=total damage to plant; 0=no damage to plant) (Helianthus annus (HELAN); 600 g/Ha): 100
Control after post-emergence application, SOLTU (100=total damage to plant; 0=no damage to plant) [7, 8]: 15
Control after post-emergence application, SOLTU (100=total damage to plant; 0=no damage to plant) [7, 9]: 50
Control after post-emergence application, SOLTU (100=total damage to plant; 0=no damage to plant) [7, 10]: 30
Control after post-emergence application, SOLTU (100=total damage to plant; 0=no damage to plant) [7, 11]: 60
Control after post-emergence application, SOLTU (100=total damage to plant; 0=no damage to plant) [7, 12]: 82
Control after post-emergence application, SOLTU (100=total damage to plant; 0=no damage to plant) [7, 13]: 67
